One data set deals with TEAD3 (Homo sapiens, UniProt Q99594). Kind of data set: Thermal shift assay TEAD3. Format: binding. The method in brief: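 Compounds at 1 or 10 μM (0.1% DMSO, PBS dilution) mixed with 0.1 mg/ml final TEAD3 and thermal shift dye, then run through a qPCR melt to follow protein unfolding.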
The test system of another data set is NCI-H226 cells. Description: Cell growth assay (CellTiter-Glo). The format is cell-based, human. Conditions: Homo sapiens, NCI-H226, 168 h, 7 days treatment, CellTiter-Glo luminescence, read-out: H226 CTG IC50. For orientation: In ATP-based viability assays light output follows the ATP content of the culture.
The target of another data set is TEAD2 (Homo sapiens, UniProt Q15562). Kind of data set: Thermal shift assay TEAD2. The format is binding. The method in brief:
(§1)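 Protein melt reactions contained TEAD1 (0.2 mg/ml final) or TEAD2 (0.08 mg/ml final) plus compound at 1 or 10 μM in 0.1% DMSO. Thermal unfolding was followed by dye fluorescence on a qPCR instrument.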

Data set [1] can be described thus: Pharmacokinetic profile evaluation in mice. Format: in vivo, CD-1 mice. The note with it: CD-1; mouse, oral administration at 10 mg/kg, plasma. How it is done:
Example C: Pharmacokinetic Profile Evaluation
Three CD-1 mice of SPF. (Sino-British SIPPR/BK Lab Animal Ltd, Shanghai.) were intravenously administrated with given compounds (Formulation: 5% DMSO+10% Solutol+85% Saline) or orally gavage administrated with given compounds (Formulation: 5% DMSO+10% Solutol+85% Saline). The blood samples were taken via cephalic vein at timepoints 0.083 h, 0.25 h, 0.5 h, 1 h, 2 h, 4 h, 8 h, and 24 h after intravenous (iv) administration or at timepoints 0.25 h, 0.5 h, 1 h, 2 h, 4 h, 6 h, 8 h, and 24 h after oral gavage administration, 30 μL/time point. Blood samples were placed in tubes containing K2-EDTA and stored on ice until centrifuged. The blood samples were centrifuged at 6800 g for 6 minutes at 2-8° C. within 1 h after collected and stored frozen at approximately −80° C. An aliquot of 20 μL plasma samples were protein precipitated with 400 μL MeOH in which contains 100 ng/mL Verapamil (IS). The mixture was vortexed for 1 min and centrifuged at 18000 g for 10 min. Transfer 400 μL supernatant to 96 well plates. An aliquot of 5 μL supernatant was injected for LC-MS/MS analysis by LC-MS/MS-27 (TQ6500+) instrument. The analytical results were confirmed using quality control samples for intra-assay variation. The accuracy of >66.7% of the quality control samples should be between 80-120% of the known value(s). Standard set of parameters including Area Under the Curve (AUC(0-t)), maximum plasma concentration (Cmax), elimination half-life (T1/2) will be calculated using noncompartmental analysis modules in FDA certified pharmacokinetic program Phoenix WinNonlin 7.0 (Pharsight, USA).

In a further data set the target is TEAD4 (Homo sapiens, UniProt Q15561). Kind of data set: Thermal shift assay TEAD4. Format: binding. The method in brief:
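Compounds tested at 1 and 10 μM (0.1% DMSO, PBS) against TEAD4 protein at 0.1 mg/ml final. Melting followed by thermal shift dye fluorescence during a qPCR instrument ramp.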

A further data set addresses TEAD1 (Homo sapiens, UniProt P28347). Kind of data set: Thermal shift assay TEAD1. Format: binding. The method in brief:
as §1

A value given as a limit tells only on which side of the number the result lay.

Broadly, the IC50 is the concentration needed to halve the response being measured. The AUC(0-t) is exposure summed from dosing to a finite time, without extrapolation to infinity. The low end stands for less exposure, the high end for more exposure. The term Cmax denotes the highest concentration seen after dosing. Usually half-life stands for the time in which the quantity being followed falls by half. Read a low half-life as rapid decline.

Chain of TEAD4 (Q15561 whole entry, species assumed): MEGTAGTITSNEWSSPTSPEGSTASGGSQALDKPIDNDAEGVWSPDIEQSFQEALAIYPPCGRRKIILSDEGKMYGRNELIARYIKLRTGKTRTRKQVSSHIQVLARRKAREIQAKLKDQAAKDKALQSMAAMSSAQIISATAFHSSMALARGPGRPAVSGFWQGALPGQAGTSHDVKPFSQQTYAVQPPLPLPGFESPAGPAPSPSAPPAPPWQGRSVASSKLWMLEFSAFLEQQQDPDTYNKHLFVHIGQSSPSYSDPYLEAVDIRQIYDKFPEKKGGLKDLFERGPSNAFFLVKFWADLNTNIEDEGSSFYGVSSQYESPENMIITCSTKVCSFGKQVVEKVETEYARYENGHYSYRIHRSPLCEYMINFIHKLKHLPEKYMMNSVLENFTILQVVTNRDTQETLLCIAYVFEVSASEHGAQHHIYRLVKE
Chain of TEAD3 (Q99594 whole entry, species assumed): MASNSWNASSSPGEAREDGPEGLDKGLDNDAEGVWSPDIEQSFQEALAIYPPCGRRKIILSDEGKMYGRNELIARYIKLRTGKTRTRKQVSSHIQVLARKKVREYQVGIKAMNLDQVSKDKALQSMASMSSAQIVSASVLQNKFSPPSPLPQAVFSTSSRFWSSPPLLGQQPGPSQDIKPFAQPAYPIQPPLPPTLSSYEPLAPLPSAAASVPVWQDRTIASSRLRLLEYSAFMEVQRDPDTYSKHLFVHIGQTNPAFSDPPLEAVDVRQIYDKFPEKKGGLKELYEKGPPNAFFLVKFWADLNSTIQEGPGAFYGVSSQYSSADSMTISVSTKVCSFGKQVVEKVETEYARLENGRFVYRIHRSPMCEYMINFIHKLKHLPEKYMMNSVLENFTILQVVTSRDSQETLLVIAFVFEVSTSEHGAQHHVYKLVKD
Chain of TEAD1 (P28347 whole entry, species assumed): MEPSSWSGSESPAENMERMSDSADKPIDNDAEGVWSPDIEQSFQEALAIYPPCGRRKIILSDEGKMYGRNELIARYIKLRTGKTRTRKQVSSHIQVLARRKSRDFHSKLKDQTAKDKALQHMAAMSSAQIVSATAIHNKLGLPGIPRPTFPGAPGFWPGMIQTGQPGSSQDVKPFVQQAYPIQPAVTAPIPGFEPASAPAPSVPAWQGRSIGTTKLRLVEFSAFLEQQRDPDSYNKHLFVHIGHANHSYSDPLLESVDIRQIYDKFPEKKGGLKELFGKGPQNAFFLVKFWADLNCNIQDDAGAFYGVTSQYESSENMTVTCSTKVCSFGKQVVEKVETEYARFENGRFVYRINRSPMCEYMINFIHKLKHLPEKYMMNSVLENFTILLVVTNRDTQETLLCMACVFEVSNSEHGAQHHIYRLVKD
Chain of TEAD2 (Q15562 whole entry, species assumed): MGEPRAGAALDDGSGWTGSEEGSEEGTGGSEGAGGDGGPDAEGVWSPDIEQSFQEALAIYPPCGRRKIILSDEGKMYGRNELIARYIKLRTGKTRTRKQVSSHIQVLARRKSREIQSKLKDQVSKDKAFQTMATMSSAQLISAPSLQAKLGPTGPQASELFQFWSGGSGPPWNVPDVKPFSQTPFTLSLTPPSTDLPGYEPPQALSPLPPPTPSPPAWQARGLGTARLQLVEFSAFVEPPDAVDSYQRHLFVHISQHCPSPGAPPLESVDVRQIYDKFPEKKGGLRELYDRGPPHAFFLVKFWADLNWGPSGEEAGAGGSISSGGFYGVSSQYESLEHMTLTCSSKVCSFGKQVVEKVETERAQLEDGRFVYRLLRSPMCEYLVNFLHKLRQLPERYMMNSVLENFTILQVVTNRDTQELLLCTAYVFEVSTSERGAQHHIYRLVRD

As to `CNC(=O)[C@H]1C[C@@H]1c1cc(Oc2ccc(C(F)(F)F)cc2)cc2cn(C)nc12` (single isomer, unassigned) [Example 34b], the “TEAD3 ΔTm” value on TEAD3 was determined as 10.9 °C. Moreover, the IC50 with NCI-H226 cells was less than 100 nM. The “TEAD2 ΔTm” value on TEAD2 came to 14.2 °C. Besides, in data set [1], the AUC(0-t) came to 31800 ng·h/mL, the highest level (Cmax) was 3180 ng/mL and the half-life is 2.2 h. The “TEAD4 ΔTm” value on TEAD4 came out at 11.3 °C. The “TEAD1 ΔTm” value on TEAD1 came out at 10.2 °C.

`Cn1cc2cc(Oc3ccc(C(F)(F)F)cc3)cc(C3C[C@H]3C(=O)N3C[C@@H]4C[C@H]3C[C@@H]4O)c2n1` (single isomer, unassigned) [Example 103f]: the “TEAD3 ΔTm” value on TEAD3 came to 9.2 °C. Further, the IC50 in the data set with NCI-H226 cells was less than 100 nM. The “TEAD2 ΔTm” value at TEAD2 amounted to 9.8 °C. In data set [1], the AUC(0-t) stood at 51600 ng·h/mL, the peak level (Cmax) was 4120 ng/mL and the half-life is 4.8 h. Moreover, the “TEAD4 ΔTm” value on TEAD4 was found to be 11.1 °C. For the same compound, the “TEAD1 ΔTm” value on TEAD1 was 8.2 °C.

In the case of `CNS(=O)(=O)CCc1cc(-c2ccc(C(F)(F)F)cc2)cc2cn(C)nc12` [Example 44], the “TEAD3 ΔTm” value on TEAD3 was determined as 3.0 °C. Besides, in the data set on NCI-H226 cells, the 50% inhibitory concentration (IC50) was less than 100 nM. For the same compound, on TEAD2, the “TEAD2 ΔTm” value is 7.6 °C. Also, in data set [1], the AUC(0-t) turned out to be 16100 ng·h/mL, the highest level (Cmax) was 2470 ng/mL and the half-life is 2.6 h. In addition, the “TEAD4 ΔTm” value at TEAD4 was 10 °C. For the same compound, the “TEAD1 ΔTm” value at TEAD1 was determined as 9.1 °C.

With `Cn1cc2cc(-c3ccc(C(F)(F)F)cc3)cc(C3C[C@H]3C(=O)O)c2n1` (mixture of isomers) [Example 2], the “TEAD3 ΔTm” value on TEAD3 turned out to be 2.7 °C. Besides, the IC50 in the data set with NCI-H226 cells is less than 100 nM. Also, the “TEAD2 ΔTm” value on TEAD2 was 7 °C. Further, in data set [1], the AUC(0-t) amounted to 104000 ng·h/mL, the Cmax was 9750 ng/mL and the half-life was 5.4 h. The “TEAD4 ΔTm” value on TEAD4 came out at 11.4 °C. Besides, on TEAD1, the “TEAD1 ΔTm” value came to 8.1 °C.

Take `Cn1ncc2c(C3C[C@H]3C(=O)O)cc(Oc3ccc(C(F)(F)F)cc3)cc21` (mixture of isomers) [Example 18]: at TEAD3, the “TEAD3 ΔTm” value was determined as 7.4 °C. The IC50 in the data set on NCI-H226 cells is 100 to 500 nM. Moreover, the “TEAD2 ΔTm” value on TEAD2 is 14 °C. In data set [1], the AUC(0-t) turned out to be 617000 ng·h/mL, the Cmax amounted to 41200 ng/mL and the half-life was 11.2 h. For the same compound, at TEAD4, the “TEAD4 ΔTm” value is 9.1 °C. The “TEAD1 ΔTm” value at TEAD1 amounted to 8.8 °C.

On to `Cn1cc2cc(Oc3ccc(C(F)(F)F)cc3)cc(C3C[C@H]3C(=O)O)c2n1` (mixture of isomers) [Example 16], for which the “TEAD3 ΔTm” value on TEAD3 turned out to be 13.1 °C. Moreover, the IC50 in the data set with NCI-H226 cells fell in the range of 100 to 500 nM. Also, the “TEAD2 ΔTm” value at TEAD2 was found to be 12.7 °C. In data set [1], this compound showed an AUC(0-t) of 676000 ng·h/mL, a Cmax of 40100 ng/mL and a half-life of 26.4 h. Moreover, the “TEAD4 ΔTm” value at TEAD4 amounted to 11.8 °C. Moreover, the “TEAD1 ΔTm” value at TEAD1 was 11.6 °C.

Turning to `CNC(=O)[C@@H]1CC1c1cc(-c2ccc(C(F)(F)F)cc2)cc2c1cnn2C` (mixture of isomers) [Example 24], the “TEAD3 ΔTm” value on TEAD3 is 0.3 °C. Further, in the data set on NCI-H226 cells, the IC50 fell in the range of 100 to 500 nM. In addition, the “TEAD2 ΔTm” value on TEAD2 was 4.5 °C. In data set [1], this compound had an AUC(0-t) of 70000 ng·h/mL, a Cmax of 5530 ng/mL and a half-life of 5.2 h. In addition, the “TEAD4 ΔTm” value on TEAD4 was 2.4 °C. Besides, the “TEAD1 ΔTm” value at TEAD1 worked out at 2.4 °C.

For the compound `O=C(O)[C@@H]1CC1c1cc(Oc2ccc(C(F)(F)F)cc2)cc2cccnc12` (mixture of isomers) [Example 17], the “TEAD3 ΔTm” value at TEAD3 was found to be 11.7 °C. The half-inhibitory concentration (IC50) in the data set on NCI-H226 cells lay within 100 to 500 nM. Moreover, the “TEAD2 ΔTm” value on TEAD2 worked out at 14.2 °C. In addition, in data set [1], the AUC(0-t) came to 497000 ng·h/mL, the Cmax worked out at 33700 ng/mL and the half-life was 26 h. In addition, at TEAD4, the “TEAD4 ΔTm” value was determined as 10.1 °C. In addition, at TEAD1, the “TEAD1 ΔTm” value was 9.2 °C.

As to `CNS(=O)(=O)CCc1cc(Oc2ccc(C(F)(F)F)cc2)cc2cn(C)nc12` [Example 45], the “TEAD3 ΔTm” value at TEAD3 amounted to 4 °C. Further, the IC50 with NCI-H226 cells fell in the range of 100 to 500 nM. Moreover, on TEAD2, the “TEAD2 ΔTm” value was found to be 10.3 °C. In data set [1], this compound gave an AUC(0-t) of 11500 ng·h/mL, a Cmax of 3100 ng/mL and a half-life of 2.2 h. For the same compound, at TEAD4, the “TEAD4 ΔTm” value was 10.6 °C. In addition, the “TEAD1 ΔTm” value on TEAD1 came to 9.3 °C.

The values are drawn from US12103915B2, “TEAD inhibitors and methods of uses thereof” (Insilico Medicine IP Limited, priority 2022, dated 2024).
